The results in this text go back to patent US20130143891A1, “Methods for Treating Methotrexate-Resistant Disorders with 10-Propargyl-10-Deazaaminopterin” (ALLOS THERAPEUTICS, INC., priority 2010, published 2013).

What all share (assay type): cell-based, human
For data set [1], the system named is OVCAR3 ovarian cancer cell line. Nature of the data set: MTT cell cytotoxicity assay, OVCAR3. Particulars: Homo sapiens, OVCAR-3, 72 h, 72 h exposure, read-out: Cytotoxicity (IC50s). On the procedure: (§1) A panel of colon (HT29, HCT116, COLO205, HCC2998), breast (MCF7, MDA-MB-435), lung (HOP62, HOP92), ovarian (OVCAR3, IGROV1), prostate (DU145, PC3), and head and neck (SCC61, HEP2, SQ20B) human cancer cell lines was purchased from the ATCC (Rockville, Md.) and National Cancer Institute collections. […] All the data generated was the result of three separate experiments performed in duplicate. Cell viability was determined using the MTT assay, which was carried out as described previously (Hansen, 1989). Briefly, cells were seeded in 96-well plates at a density of 2×10^3 cells well^−1. […] The monolayer was suspended in 0.1 ml of DMSO and the absorbance at 560 nm was measured using a microplate reader. Positive and negative controls included wells with untreated cells or medium containing MTT with no cells, respectively. The conversion of yellow water-soluble tetrazolium MTT into purple insoluble formazan is catalyzed by mitochondrial dehydrogenases and is used to estimate the number of viable cells.
(In general: Tetrazolium dyes change colour on reduction, which living cells bring about.)

The subject of data set [2] is PC3 prostate cancer cell line. Nature of the data set: MTT cell cytotoxicity assay, PC3. To be noted: Homo sapiens, 72 h, 72 h exposure, read-out: Cytotoxicity (IC50s). On the procedure:
as §1

The subject of another data set is HOP62 NSCLC cell line. Nature of the data set: MTT cell cytotoxicity assay, HOP62. Particulars: Homo sapiens, HOP-62, 72 h, 72 h exposure, read-out: Cytotoxicity (IC50s). The method, then: as §1
Data set [3] relates to IGROV1 ovarian cancer cell line. In words: MTT cell cytotoxicity assay, IGROV1. Particulars: Homo sapiens, IGROV-1, 72 h, 72 h exposure, read-out: Cytotoxicity (IC50s). On the procedure:
as §1

In data set [4] the test system is HCT116 colon cancer cell line. Nature of the data set: MTT cell cytotoxicity assay, HCT116. Particulars: Homo sapiens, HCT-116, 72 h, 72 h exposure, read-out: Cytotoxicity (IC50s). On the procedure: as §1
The test system of data set [5] is MDA-MB-435 melanoma cell line. In words: MTT cell cytotoxicity assay, MDA-MB-435. Particulars: Homo sapiens, MDA-MB-435, 72 h, MDA-MB-435 (melanoma; MDA435 in table), 72 h exposure; read-out: Cytotoxicity (IC50s). On the procedure:
as §1

In data set [6] the test system is MCF7 breast cancer cell line. Nature of the data set: MTT cell cytotoxicity assay, MCF7. To be noted: Homo sapiens, MCF7, 72 h, 72 h exposure, read-out: Cytotoxicity (IC50s). On the procedure:
as §1

Data set [7] concerns COLO205 colon cancer cell line. Nature of the data set: MTT cell cytotoxicity assay, COLO205. Particulars: Homo sapiens, COLO 205, 72 h, 72 h exposure, read-out: Cytotoxicity (IC50s). On the procedure: as §1
The next data set concerns DU-MTX cells. In words: Cytotoxicity in methotrexate-adapted DU145 cells. On the procedure: (§2) All the data generated was the result of three separate experiments performed in duplicate. Cell viability was determined using the MTT assay, which was carried out as described previously (Hansen, 1989). Briefly, cells were seeded in 96-well plates at a density of 2×10^3 cells well^−1. Cells were incubated for 120 hours and then 0.4 mg ml^−1 of MTT dye (3-[4,5-dimethylthiazol-2-yl]-2,5-diphenyltetrazolium bromide was added for 4 hours at 37° C. The monolayer was suspended in 0.1 ml of DMSO and the absorbance at 560 nm was measured using a microplate reader. Positive and negative controls included wells with untreated cells or medium containing MTT with no cells, respectively. The conversion of yellow water-soluble tetrazolium MTT into purple insoluble formazan is catalyzed by mitochondrial dehydrogenases and is used to estimate the number of viable cells. The control value corresponding to untreated cells was taken as 100% and the viability of treated samples was expressed as a percentage of the control. IC50 values were determined as concentrations that reduced cell viability by 50%.
(§3) For single agent studies, cells were seeded and allowed to settle for 24 hours prior to treatment with increasing concentrations of 10-propargyl-10-deazaminopterin for 72 h. After incubation, the cells were allowed to recover in compound-free medium for 48 h, prior to determination of growth inhibition using the MTT assay.
To compare the mechanisms of 10-propargyl-10-deazaminopterin and methotrexate resistance, the cell lines DU-MTX and HEP-MTX were developed from parental DU145 and HEP2 cells by exposure to stepwise increasing concentrations of methotrexate.

The test system of the next data set is HEP-PDX cells. Nature of the data set: Cytotoxicity in 10-propargyl-10-deazaminopterin-adapted HEP2 cells. Particulars: HEP-PDX cells; 72 h exposure for pemetrexed and 5-FU. The method, then:
as §2, §3
(§4) To characterize the predictive factors of 10-propargyl-10-deazaminopterin antiproliferative effects, the cell lines DU-PDX and HEP-PDX were developed from parental DU145 and HEP2 cells, respectively, by exposure to stepwise increasing concentrations of 10-propargyl-10-deazaminopterin over a period of 6 months.

In the next data set the test system is HOP92 NSCLC cell line. In words: MTT cell cytotoxicity assay, HOP92. To be noted: Homo sapiens, HOP-92, 72 h, 72 h exposure, read-out: Cytotoxicity (IC50s). The method, then: as §1
The subject of data set [8] is HT29 colon cancer cell line. In words: MTT cell cytotoxicity assay, HT29. To be noted: Homo sapiens, HT-29, 72 h, 72 h exposure, read-out: Cytotoxicity (IC50s). On the procedure: as §1
Data set [9] relates to SCC61 head and neck cancer cell line. Nature of the data set: MTT cell cytotoxicity assay, SCC61. To be noted: Homo sapiens, 72 h, 72 h exposure, read-out: Cytotoxicity (IC50s). On the procedure:
as §1

The test system of data set [10] is HCC2998 colon cancer cell line. In words: MTT cell cytotoxicity assay, HCC2998. Particulars: Homo sapiens, HCC 2998, 72 h, 72 h exposure, read-out: Cytotoxicity (IC50s). The method, then:
as §1

In data set [11] the test system is SQ20B head and neck cancer cell line. In words: MTT cell cytotoxicity assay, SQ20B. To be noted: Homo sapiens, SQ20B, 72 h, 72 h exposure, read-out: Cytotoxicity (IC50s). The method, then:
as §1

The test system of data set [12] is HEP2 head and neck cancer cell line. Nature of the data set: MTT cell cytotoxicity assay, HEP2. Particulars: Homo sapiens, HEp-2, 72 h, 72 h exposure, read-out: Cytotoxicity (IC50s). The method, then:
as §1

A further data set concerns DU-PDX cells. In words: Cytotoxicity in 10-propargyl-10-deazaminopterin-adapted DU145 cells. Particulars: DU-PDX cells; 72 h exposure for pemetrexed and 5-FU. On the procedure:
as §2, §3, §4

For data set [13], the system named is DU145 prostate cancer cell line. In words: MTT cell cytotoxicity assay, DU145. To be noted: Homo sapiens, DU-145, 72 h, naïve/parental, 72 h exposure, read-out: Cytotoxicity (IC50s). On the procedure: as §1
A further data set relates to HEP-MTX cells. In words: Cytotoxicity in methotrexate-adapted HEP2 cells. To be noted: methotrexate-adapted HEP2 compared with parental cells. The method, then: as §2
For single agent studies, cells were seeded and allowed to settle for 24 hours prior to treatment with increasing concentrations of 10-propargyl-10-deazaminopterin for 72 h. […]

“Also recorded” adds a separate entry of the source.

On to `CN(Cc1cnc2nc(N)nc(N)c2n1)c1ccc(C(=O)N[C@@H](CCC(=O)O)C(=O)O)cc1` [Methotrexate], for which the IC50 was over 350000 nM in data set [1]; 100 nM in [2]; 150 nM in the data set on HOP62 NSCLC cell line; 330 nM in data set [3]; over 350000 nM in data set [4]; over 350000 nM in [5]. Further, the IC50 was 300000 nM in data set [6]; 30000 nM in [7]; 600 nM with HOP92 NSCLC cell line; 220 nM in [8]; 30 nM in data set [9]; over 350000 nM in [10]. Moreover, the IC50 in data set [11] turned out to be 260 nM; in [12], 250 nM; in data set [13], 300 nM. Further, the “increase in IC50 in methotrexate adapted DU-145 cells” value in the data set on DU-MTX cells (DU-MTX versus naïve DU-145) is on record as “approximately 10 fold”. Besides, the “sensitivity of DU-MTX cells (in words)” value with DU-MTX cells (methotrexate-adapted DU145 compared with parental/naïve cells) is “displayed resistance”. In the data set with HEP-PDX cells, the “cross-resistance: cytotoxicity in HEP-PDX compared with parental HEP2” value is on record as “partial cross-resistance”. Moreover, the “cross-resistance: cytotoxicity in DU-PDX compared with parental DU145” value in the data set with DU-PDX cells is on record as “partial cross-resistance; also recorded: insensitive”. In the data set with HEP-MTX cells, the “sensitivity of HEP-MTX cells (in words)” value is “displayed resistance”.
